Data from patent publication US8865756B2, “Inhibitors of HCV NS5A” (Presidio Pharmaceuticals, Inc., priority 2008, dated 2014).

Each compound was assayed on HCV 1b_Huh-Luc/Neo-ET cell line persistently expressing a bicistronic genotype 1b replicon in Huh 7 cells (assay: HCV replicon assay (luciferase readout)). Conditions: Hepatitis C virus, Huh-7, 72 h, read-out: Inhibition of HCV genotype 1b.
Type: cell-based
How it was run: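 EC50, determined repeatedly, comes from a four-parameter logistic fit of luciferase signal as percent of untreated control. Readout follows 72 h compound exposure, in triplicate, of the HCV 1b_Huh-Luc/Neo-ET replicon line.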

`COC(=O)N[C@@H](C(=O)N1CCC[C@H]1c1nc2ccc(C#Cc3ccc4nc([C@@H]5CCCN5C(=O)[C@H](NC(=O)OC)c5ccccc5)[nH]c4c3)cc2[nH]1)c1ccccc1` [Compound 851] and `COC(=O)N[C@H](C(=O)N1CCC[C@H]1c1nc2ccc(C#Cc3ccc4nc([C@@H]5CCCN5C(=O)[C@@H](NC(=O)OC)C(C)C)[nH]c4c3)cc2[nH]1)C(C)C` [Compound 852] cannot be ordered by EC50: under 1 nM for the first, under 1 nM for the second.

Compared with `COC(=O)N[C@@H](C(=O)N1CCC[C@H]1c1nc2ccc(C#Cc3ccc4nc([C@@H]5CCCN5C(=O)[C@H](NC(=O)OC)C(C)C)[nH]c4c3)cc2[nH]1)C(C)C` [Compound 853], `COC(=O)N[C@@H](C(=O)N1CCC[C@H]1c1ncc(-c2ccc(C#Cc3ccc4nc([C@@H]5CCCN5C(=O)[C@H](NC(=O)OC)C(C)C)[nH]c4c3)cc2)[nH]1)C(C)C` [Compound 861] is higher in EC50: under 1 nM for the first, 10 to 999 nM for the second.

`COC(=O)N[C@H](C(=O)N1CCC[C@H]1c1ncc(-c2ccc(C#Cc3ccc4nc([C@@H]5CCCN5C(=O)[C@@H](c5ccccc5)N(C)C)[nH]c4c3)cc2)[nH]1)C(C)C` [Compound 860] and `COC(=O)N[C@H](C(=O)N1CCC[C@H]1c1nc2ccc(C#Cc3ccc(-c4cnc([C@@H]5CCCN5C(=O)[C@H](c5ccccc5)N(C)C)[nH]4)cc3)cc2[nH]1)C(C)C` [Compound 864] cannot be ordered by EC50: under 1 nM for the first, under 1 nM for the second.

`COC(=O)N[C@H](C(=O)N1CCC[C@H]1c1ncc(-c2ccc(C#Cc3ccc4nc([C@@H]5CCCN5C(=O)[C@@H](NC(=O)OC)[C@@H](C)OC)[nH]c4c3)cc2)[nH]1)[C@@H](C)OC` [Compound 862] and `COC(=O)N[C@H](C(=O)N1CCC[C@H]1c1ncc(-c2ccc(C#Cc3ccc4nc([C@@H]5CCCN5C(=O)[C@@H](NC(=O)OC)[C@@H](C)O)[nH]c4c3)cc2)[nH]1)[C@@H](C)O` [Compound 863] cannot be ordered by EC50: under 1 nM for the first, under 1 nM for the second.

`COC(=O)N[C@H](C(=O)N1CCC[C@H]1c1nc2ccc(C#Cc3ccc(-c4cnc([C@@H]5CCCN5C(=O)[C@@H](C(C)C)N(C)C)[nH]4)cc3)cc2[nH]1)C(C)C` [Compound 865] and `COC(=O)N[C@H](C(=O)N1CCC[C@H]1c1nc2ccc(C#Cc3ccc(-c4cnc([C@@H]5CCCN5C(=O)[C@H](C(C)C)N(C)C)[nH]4)cc3)cc2[nH]1)C(C)C` [Compound 866] cannot be ordered by EC50: under 1 nM for the first, under 1 nM for the second.

`COC(=O)N[C@H](C(=O)N[C@@H](C)c1nc2ccc(C#Cc3ccc(-c4cnc([C@@H]5CCCN5C(=O)[C@@H](NC(=O)OC)C(C)C)[nH]4)cc3)cc2[nH]1)C(C)C` [Compound 867] and `COC(=O)N[C@H](C(=O)N[C@@H](C)c1ncc(-c2ccc(C#Cc3ccc4nc([C@@H]5CCCN5C(=O)[C@@H](NC(=O)OC)C(C)C)[nH]c4c3)cc2)[nH]1)C(C)C` [Compound 869] cannot be ordered by EC50: under 1 nM for the first, under 1 nM for the second.

`COC(=O)N[C@H](C(=O)N[C@@H](C)c1ncc(-c2ccc(C#Cc3ccc4nc([C@H](C)NC(=O)[C@@H](NC(=O)OC)C(C)C)[nH]c4c3)cc2)[nH]1)C(C)C` [Compound 868] and `COC(=O)N[C@@H](C(=O)N[C@@H](C)c1ncc(-c2ccc(C#Cc3ccc(-c4cnc([C@H](C)NC(=O)[C@H](NC(=O)OC)C(C)C)[nH]4)cc3)cc2)[nH]1)C(C)C` [Compound 950] cannot be ordered by EC50: under 1 nM for the first, under 1 nM for the second.

First: CC1(O)CCN(C(=O)N[C@@H](C(=O)N2CCC[C@H]2c2ncc(C#Cc3ccc(-c4ccc(-c5cnc([C@@H]6CCCN6C(=O)[C@H](NC(=O)N6CCC(C)(O)CC6)c6ccccc6)[nH]5)cc4)cc3)[nH]2)c2ccccc2)CC1 [Compound 870]
Second: CC(C)[C@H](NC(=O)N1CCC(C)(O)CC1)C(=O)N1CCC[C@H]1c1ncc(-c2ccc(C#Cc3ccc(-c4cnc([C@@H]5CCCN5C(=O)[C@@H](NC(=O)N5CCC(C)(O)CC5)C(C)C)[nH]4)cc3)cc2)[nH]1 [Compound 966]
The EC50 of the first is lower: under 1 nM for the first, 10 to 999 nM for the second. The first is the more potent here.

`COC(=O)N[C@H](C(=O)N[C@@H](C)c1ncc(-c2ccc(C#Cc3ccc(-c4cnc([C@H](C)NC(=O)[C@@H](NC(=O)OC)C(C)C)[nH]4)cc3)cc2)[nH]1)C(C)C` [Compound 951] and `COC(=O)N[C@H](C(=O)N[C@@H](C)c1ncc(-c2ccc(C#Cc3ccc(-c4cnc([C@H](C)NC(=O)[C@@H](NC(=O)OC)[C@@H](C)O)[nH]4)cc3)cc2)[nH]1)[C@@H](C)O` [Compound 969] cannot be ordered by EC50: under 1 nM for the first, under 1 nM for the second.

Compared with `COC(=O)N[C@H](C(=O)N[C@@H](C)c1ncc(-c2ccc(C#Cc3ccc(-c4cnc([C@H](C)NC(=O)[C@@H](NC(=O)OC)[C@@H](C)OC)[nH]4)cc3)cc2)[nH]1)[C@@H](C)OC` [Compound 952], `COC(=O)N[C@@H](C(=O)N1CCC[C@H]1c1ncc(-c2ccc(C#Cc3ccc(-c4cnc([C@@H]5CCCN5C(=O)[C@H](NC(=O)OC)[C@H](C)OC)[nH]4)cc3)cc2)[nH]1)[C@H](C)OC` [Compound 977] is higher in EC50: 1 to 9.9 nM for the first, 10 to 999 nM for the second.

`COC(=O)N[C@H](C(=O)N1CCC[C@H]1c1ncc(-c2ccc(C#Cc3ccc(-c4cnc([C@@H]5CCCN5C(=O)[C@H](C(C)C)N(C)C)[nH]4)cc3)cc2)[nH]1)C(C)C` [Compound 953] and `COC(=O)N[C@H](C(=O)N1CCC[C@H]1c1ncc(-c2ccc(C#Cc3ccc(-c4cnc([C@@H]5CCCN5C(=O)[C@@H](C(C)C)N(C)C)[nH]4)cc3)cc2)[nH]1)C(C)C` [Compound 954] fall in the same range of EC50: 1 to 9.9 nM for the first, 1 to 9.9 nM for the second.

`COC(=O)N[C@H](C(=O)N1CCC[C@H]1c1ncc(-c2ccc(C#Cc3ccc(-c4cnc([C@@H]5CCCN5C(=O)[C@@H](c5ccccc5)N(C)C)[nH]4)cc3)cc2)[nH]1)C(C)C` [Compound 955] and `COC(=O)N[C@H](C(=O)N1CCC[C@H]1c1ncc(-c2ccc(C#Cc3ccc(-c4cnc([C@@H]5CCCN5C(=O)[C@@H](c5ccccc5)N5CCN(C)CC5)[nH]4)cc3)cc2)[nH]1)C(C)C` [Compound 957] cannot be ordered by EC50: under 1 nM for the first, under 1 nM for the second.

`COC(=O)N[C@H](C(=O)N1CCC[C@H]1c1ncc(-c2ccc(C#Cc3ccc(-c4cnc([C@@H]5CCCN5C(=O)[C@@H](c5ccccc5)N5CCC(O)CC5)[nH]4)cc3)cc2)[nH]1)C(C)C` [Compound 956] and `COC(=O)N[C@H](C(=O)N1CCC[C@H]1c1ncc(-c2ccc(C#Cc3ccc(-c4cnc([C@@H]5CCCN5C(=O)[C@@H](c5ccccc5)N5CCC(C)(O)CC5)[nH]4)cc3)cc2)[nH]1)C(C)C` [Compound 970] cannot be ordered by EC50: under 1 nM for the first, under 1 nM for the second.

`COC(=O)N[C@H](C(=O)N1CCC[C@H]1c1ncc(-c2ccc(C#Cc3ccc(-c4cnc([C@@H]5CCCN5C(=O)[C@@H](c5ccccc5)N5CCN(CCO)CC5)[nH]4)cc3)cc2)[nH]1)C(C)C` [Compound 958] and `COC(=O)N[C@H](C(=O)N1CCC[C@H]1c1ncc(-c2ccc(C#Cc3ccc(-c4cnc([C@@H]5CCCN5C(=O)[C@H](NC(=O)N5CC[C@H](O)C5)c5ccccc5)[nH]4)cc3)cc2)[nH]1)C(C)C` [Compound 974] cannot be ordered by EC50: under 1 nM for the first, under 1 nM for the second.

`CC[C@H](NC(=O)OC)C(=O)N1CCC[C@H]1c1ncc(-c2ccc(C#Cc3ccc(-c4cnc([C@@H]5CCCN5C(=O)[C@H](CC)NC(=O)OC)[nH]4)cc3)cc2)[nH]1` [Compound 960] and `COC[C@H](NC(=O)OC)C(=O)N1CCC[C@H]1c1ncc(-c2ccc(C#Cc3ccc(-c4cnc([C@@H]5CCCN5C(=O)[C@H](COC)NC(=O)OC)[nH]4)cc3)cc2)[nH]1` [Compound 976] cannot be ordered by EC50: under 1 nM for the first, under 1 nM for the second.

`COC(=O)N[C@@H](CC(C)C)C(=O)N1CCC[C@H]1c1ncc(-c2ccc(C#Cc3ccc(-c4cnc([C@@H]5CCCN5C(=O)[C@H](CC(C)C)NC(=O)OC)[nH]4)cc3)cc2)[nH]1` [Compound 961] and `COC(=O)N[C@@H](C)C(=O)N1CCC[C@H]1c1ncc(-c2ccc(C#Cc3ccc(-c4cnc([C@@H]5CCCN5C(=O)[C@H](C)NC(=O)OC)[nH]4)cc3)cc2)[nH]1` [Compound 962] cannot be ordered by EC50: under 1 nM for the first, under 1 nM for the second.

`COC(=O)N[C@H](C(=O)N[C@@H](C)c1ncc(-c2ccc(C#Cc3ccc(-c4cnc([C@@H]5CCCN5C(=O)[C@H](C(C)C)N(C)C)[nH]4)cc3)cc2)[nH]1)C(C)C` [Compound 963] and `COC(=O)N[C@H](C(=O)N[C@@H](C)c1ncc(-c2ccc(C#Cc3ccc(-c4cnc([C@@H]5CCCN5C(=O)[C@@H](C(C)C)N(C)C)[nH]4)cc3)cc2)[nH]1)C(C)C` [Compound 964] fall in the same range of EC50: 1 to 9.9 nM for the first, 1 to 9.9 nM for the second.

`COC(=O)N[C@H](C(=O)N[C@@H](C)c1ncc(-c2ccc(C#Cc3ccc(-c4cnc([C@@H]5CCCN5C(=O)[C@@H](c5ccccc5)N(C)C)[nH]4)cc3)cc2)[nH]1)C(C)C` [Compound 965] and `COC(=O)N[C@H](C(=O)N1CCC[C@H]1c1ncc(-c2ccc(C#Cc3ccc(-c4cnc([C@@H]5CCCN5C(=O)[C@H](NC(=O)N(CCO)CCO)c5ccccc5)[nH]4)cc3)cc2)[nH]1)C(C)C` [Compound 973] cannot be ordered by EC50: under 1 nM for the first, under 1 nM for the second.

`CC(C)[C@H](NC(=O)N1CCNCC1)C(=O)N1CCC[C@H]1c1ncc(-c2ccc(C#Cc3ccc(-c4cnc([C@@H]5CCCN5C(=O)[C@@H](NC(=O)N5CCNCC5)C(C)C)[nH]4)cc3)cc2)[nH]1` [Compound 967] and `CC(C)[C@H](NC(=O)N1CC[C@@H](O)C1)C(=O)N1CCC[C@H]1c1ncc(-c2ccc(C#Cc3ccc(-c4cnc([C@@H]5CCCN5C(=O)[C@@H](NC(=O)N5CC[C@@H](O)C5)C(C)C)[nH]4)cc3)cc2)[nH]1` [Compound 968] fall in the same range of EC50: 10 to 999 nM for the first, 10 to 999 nM for the second.

First: COC(=O)NC(C(=O)N1CCC[C@H]1c1ncc(-c2ccc(C#Cc3ccc(-c4cnc([C@@H]5CCCN5C(=O)[C@@H](NC(=O)OC)C(C)C)[nH]4)cc3)cc2)[nH]1)[C@@H](C)O (stereo partly drawn) [Compound 971]
Second: COC(=O)NC(C(=O)N1CCC[C@H]1c1ncc(-c2ccc(C#Cc3ccc(-c4cnc([C@@H]5CCCN5C(=O)[C@H](NC(=O)OC)[C@H](C)O)[nH]4)cc3)cc2)[nH]1)[C@H](C)O (stereo partly drawn) [Compound 978]
The EC50 of the first is lower: under 1 nM for the first, 10 to 999 nM for the second. The first is the more potent here.

`COC(=O)NC(C(=O)N1CCC[C@H]1c1ncc(-c2ccc(C#Cc3ccc(-c4cnc([C@@H]5CCCN5C(=O)[C@@H](NC(=O)OC)C(C)C)[nH]4)cc3)cc2)[nH]1)[C@@H](C)OC` (stereo partly drawn) [Compound 972] and `COC(=O)N[C@H](C(=O)N1CCC[C@H]1c1ncc(-c2ccc(C#Cc3ccc(-c4cnc([C@@H]5CCCN5C(=O)[C@H](NC(=O)N5CC[C@@H](O)C5)c5ccccc5)[nH]4)cc3)cc2)[nH]1)C(C)C` [Compound 975] cannot be ordered by EC50: under 1 nM for the first, under 1 nM for the second.
